Key:
[1] = target: T1, growth hormone secretagogue receptor (GHSR), rat pituitary membranes (Rattus norvegicus, UniProt O08725); assay: [35S]-Compound A radioreceptor binding, rat pituitary membranes
T1 construct: from the Wistar male rats (150-200 g); from tissue; host or cells: pituitary glands of male Wistar rats (150-200 g), crude membranes
Protocol: [^35 S]-Compound A was prepared from an appropriate precursor, N-[1(R)-[(1,2-dihydrospiro[3H-indole-3,4'-piperidin]-1'-yl)-carbonyl]-2-(phenyl-methyloxy)ethyl]-2-amino-t-butoxycarbonyl-2-methylpropanamide, using methane [^35 S]sulfonyl chloride as described in Dean DC, et al., 1995, In: Allen J, Voges R (eds) Synthesis and Applications of Isotopically Labelled Compounds, John Wiley & Sons, New York, pp. 795-801, Purification by semi-preparative HPLC (Zorbax SB-phenyl column, 68% MeOH/water, 0.1% TFA, 5 ml/min) was followed by N-t-BOC cleavage using 15% trifluroacetic acid in dichloromethane (25° C., 3 hr) to give [methylsulfonyl-^35 S]Compound A in near quantitative yield. HPLC purification (Hamilton PRP-1 4.6×250 mm column, linear gradient of 50-75% methanol-water with 1 mM HCl over 30 min, 1.3 ml/min) provided the ligand in >99% radiochemical purity. The structure was established by HPLC coelution with unlabeled Compound A and by mass spectral analysis. The latter method also indicated a specific activity of ~1000 Ci/mmol.
Frozen anterior pituitary glands from male swine (50-80 Kg) or from the Wistar male rats (150-200 g) were homogenized in a tissue homogenizer in ice-cold buffer (50 mM Tris-HCl buffer, pH 7.4, 5 mM MgCl2, 2.5 mM EDTA, 0.1% bovine serum albumin and 30 μg/ml bacitracin). The homogenates were centrifuged for 5 min at 1,400×g and the resulting supernatants were then centrifuged at 34,000×g for 20 min. The pellets were resuspended in same buffer to a 1,500 μg protein/ml and stored at -80° C. Protein was determined by a Bio-Rad method (Bio-Rad Laboratories, Richmond, Calif.).
The standard binding solution contained: […] of 25 mM Tris-HCl buffer, pH 7.4, 10 mM MgCl2, 2.5 mM EDTA, and 100 pM [^35 S]-Compound A. Pituitary membranes (100 μl, 150 μg protein) were added to initiate the binding reaction. […] The filters were washed three times with 3-ml of ice-cold buffer (50 mM Tris-HCl, pH 7.4, 10 mM MgCl2, 2.5 mM EDTA and 0.015% Triton X-100) and the radioactivity on the filters were counted in Aquasol 2. […]

[2] = test system: rat GHSR type Ia; assay: Aequorin bioluminescence in transfected 293-AEQ17 (HEK-293) cells, rat GHSR; format: cell-based; conditions: three replicate samples; mobilization of intracellular calcium
Protocol: Functional activity of the ORF construct was assessed by transfecting (using lipofectamine; GIBCO/BRL) 5 μg of plasmid DNA into the aequorin expressing reporter cell line (293-AEQ17) cultured in 60 mm dishes. Following approximately 40 hours of expression the aequorin in the cells was charged for 2 hours with coelenterazine, the cells were harvested, washed and pelleted by low speed centrifugation into luminometer tubes. Functional activity was determined by measuring Compound A dependent mobilization of intracellular calcium and concommitant calcium induced aequorin bioluminescence.

T1 sequence (O08725 whole entry): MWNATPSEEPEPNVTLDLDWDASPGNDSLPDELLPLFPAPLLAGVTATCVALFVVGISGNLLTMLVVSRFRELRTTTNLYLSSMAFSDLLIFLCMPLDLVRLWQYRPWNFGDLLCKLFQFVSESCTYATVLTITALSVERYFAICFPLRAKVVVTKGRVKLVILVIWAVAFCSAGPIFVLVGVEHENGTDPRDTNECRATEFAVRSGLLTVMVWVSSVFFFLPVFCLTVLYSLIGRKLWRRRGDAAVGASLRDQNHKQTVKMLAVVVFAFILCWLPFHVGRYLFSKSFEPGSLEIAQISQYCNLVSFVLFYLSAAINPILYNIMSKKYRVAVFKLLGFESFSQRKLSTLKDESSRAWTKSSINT

specific binding of total binding ([1]; rat membranes, nonspecific in 500 nM unlabeled Compound A): 45-60%
Bmax ([1]; rat pituitary membranes, n=3): 2.3±1.1 fmol/mg protein
Kd ([1]; rat pituitary membranes, n=3): 0.18 ± 0.009 nM
Compound: CC(C)(N)C(=O)N[C@H](COCc1ccccc1)C(=O)N1CCC2(CC1)CN(S(C)(=O)=O)c1ccccc12 [Compound A, (N-[1(R)-[1,2-dihydro-1-methanesulfonlylspiro[3H-indole-3,4'-piperidin]-1'-yl)carbonyl]-2-(phenylmethyloxy)-ethyl]-2-amino-2-methyl-propanamide]
Compound A induced luminescent response (in words) [2]: Compound A induced luminescent responses
